Data reported in article PMC4921858, “Structural and functional characterization of the CAP domain of pathogen-related yeast 1 (Pry1) protein” (Scientific Reports, 2016).

Legend:
[1] = molecular target: T1, Pathogen-related yeast 1 (Pry1), CAP domain (Pry1CAP) (Saccharomyces cerevisiae, UniProt P47032); experiment: [3H]-cholesterol saturation radioligand binding with purified protein
T1 construct: C-terminal CAP domain, Ser151 through Ala296 (Pry1CAP)
T1 sequence (P47032 151-296): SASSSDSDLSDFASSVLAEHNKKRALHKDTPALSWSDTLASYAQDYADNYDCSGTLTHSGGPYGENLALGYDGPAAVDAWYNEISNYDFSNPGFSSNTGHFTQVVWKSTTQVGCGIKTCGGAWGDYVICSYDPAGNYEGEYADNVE

[2] = molecular target: CAP domain of pathogen-related yeast protein-1 (Pry1) from Saccharomyces cerevisiae (Saccharomyces cerevisiae); experiment: SEC; 20 μg Pry1CAP injected on a Yarra SEC-2000 column, 0.5 ml/min, PBS pH 7.4 as mobile phase, calibrated with Bio-Rad gel filtration standards, in triplicate

Row | Molecule | Kd [1] [µM] | stoichiometry N [2]
1 | CC(C)CCC[C@@H](C)[C@H]1CC[C@H]2[C@@H]3CC=C4C[C@@H](O)CC[C@]4(C)[C@H]3CC[C@]12C [cholesterol] | 2.08 ± 0.07 | 
2 | CAP domain of pathogen-related yeast protein-1 (Pry1) from Saccharomyces cerevisiae (domain or fragment) |  | 2
